# Measured values from EP1142584A1, “COMPOSITIONS FOR TREATING FREQUENT URINATION AND URINARY INCONTINENCE” (Takeda Chemical Industries, Ltd., priority 1999, dated 2000).
# Where a name gives a salt, the structure may show the parent alone. Marks after values point to notes of the source that are not given here.
# Legend:
# Format in all cases: in vivo
# [1] = system: rhythmic bladder contractions in urethane-anesthetized rats; test: Rhythmic bladder contractions in urethane-anesthetized rats (Test Example 2); conditions: mean ± standard error; for Reflex shutdown time: maximum observation period 30 minutes
# Method: The urinary frequency and urinary incontinence suppressing activity of a GABA uptake inhibitor was measured as the ability to abolish the rhythmic bladder contractions in urethane-anesthetized rats as an index. An urethra was ligated, a constant volume of physiological saline warmed at 39°C was injected into the bladder to distend the detrusor muscle, and the regular rhythmic bladder contractions at a constant interval were observed. After the stable bladder contractions were confirmed, a compound was administered intravenously to investigate the activities. A time for completely suppressing the rhythmic bladder contractions after the drug administration (reflex shutdown time, a maximum observation period was 30 minutes) and a maximum contractile intravesical pressure at which the bladder contraction appeared again after the administration was measured. […] Table 2 Tiagabin hydrochloride was dissolved in distilled water, other drugs were dissolved in physiological saline, and the drugs were administered intravenously, respectively. Data are shown as mean ± standard error. *P<0.05, **P<0.01 (significance relative to the vehicle-administered control group, nonparametric Dunnett multiple comparison test, two-tailed test) ^#P<0.05 (significance to the values obtained before drug administration, paired t test, two-tailed test). A maximum contractile pressure was calculated from animals from which the bladder constriction was obtained in an observation period.
# [2] = system: unilaterally decerebrated rat under consciousness; test: Micturition interval in unilaterally decerebrated rat under consciousness (Test Example 5); conditions: for Micturition interval (min.) After administration / Micturition pressure (mmHg) After administration / Micturition interval (min.) Before administration / Micturition pressure (mmHg) Before administration: mean ± standard error; for Micturition interval (min.) Before administration / Micturition pressure (mmHg) Before administration: 30 minutes before drug
# Method: The urinary frequency and urinary incontinence activity of a GABA uptake inhibitor was measured as the ability to increase the micturition interval in a unilaterally decerebrated rat under consciousness as an index. Animals were restricted in a Ballmann cage, and physiological saline was sustained-injected into the bladder at a constant rate (0.05 ml/min.) to induce repeated micturition. In a unilaterally decerebrated rat, micturition interval was decreased, and after the stable micturition interval was confirmed, a drug was administered intravenously or orally to investigate the activity (Table 5 and Table 6). The micturition interval and micturition pressure before and after drug administration were measured for 30 minutes, and the mean values were compared.
# A drug was administered intravenously. Cystometogram was continuously measured for 30 minutes starting 15 minutes after drug administration, and it was compared with that for 30 minutes before drug administration. Data are shown as the means ± standard error. *P<0.05 **P<0.01 (significance to before administration, paired t test, two-tailed test) Table 6
# A drug was administered orally. A bladder inner pressure curve was continuously measured for 30 minutes starting 60 minutes after drug administration, and it was compared with that for 30 minutes before drug administration. Data are shown as the mean ± standard error. *P<0.05 (significance relative to drug administration, paired t test, two-tailed test)
# [3] = system: bilateral common carotid artery-ligated rat under consciousness; test: Micturition interval in bilateral common carotid artery-ligated rat under consciousness (Test Example 4); conditions: for Micturition interval (relative to before ligation, %) After administration / Micturition pressure (relative to before ligation, %) After administration: 30 minutes after administration; for Micturition interval (relative to before ligation, %) After administration / Micturition pressure (relative to before ligation, %) After administration / Micturition interval (relative to before ligation, %) Before administration / Micturition pressure (relative to before ligation, %) Before administration: mean ± standard error; for Micturition interval (relative to before ligation, %) Before administration / Micturition pressure (relative to before ligation, %) Before administration: after ligation, before drug
# Method: The urinary frequency and urinary incontinence suppressing activity of a GABA uptake inhibitor was measured as the ability to increase the micturition interval in bilateral common carotid artery-ligated rat under consciousness as an index. An animal was restricted in a Ballmann cage, and physiological saline was sustained-injected into the bladder at a constant rate (0.1 ml/min.) to induce repeated micturition. After the stable micturition interval was confirmed, common carotid arteries were ligated bilaterally and micturition interval was decreased. A compound was administered intravenously to animals with micturition interval decreased 20% or more following ligation, and the activity was investigated. The micturition interval and micturition pressure before and after drug administration were measured for 30 minutes, and the averages are expressed as the ratio to the value before bilateral common carotid artery-ligation (Table 4). […]
# Tiagabin hydrochloride was dissolved in distilled water and administered intravenously. Crystometograms for 30 minutes before and after drug administration were continuously measured and compared. Data are shown as a ratio to micturition interval and micturition pressure before bilateral common carotid artery-ligation (mean ± standard error). *P<0.05, **P<0.01 (significance relative to before drug administration, paired t test, two-tailed test)
# [4] = system: bladder capacity in urethane-anesthetized rats; test: Bladder capacity (cystometry) in urethane-anesthetized rats (Test Example 3); conditions: mean ± standard error
# Method: The urinary frequency and urinary incontinence suppressing activity of a GABA uptake inhibitor was shown by the ability to increase bladder capacity in urethane-anesthetized rats. After a bladder was made empty by drawing out the urine, physiological saline warmed at 39°C was injected into the bladder at a constant rate (0.05 ml/min.) to induce micturition. These procedures were repeated to confirm stable bladder capacity (volume of physiological saline injected until start of micturition) and, thereafter, compounds were administered intravenously to investigate the activities. A change in bladder capacity and micturition pressure after the administration was measured. […] Table 3 Tiagabin hydrochloride was dissolved in distilled water, other drugs were dissolved in physiological saline and the drugs were administered intravenously, respectively. Data are shown as the mean ± standard error. After drug administration, animals showing an overflow urinary incontinence-like cystometrogram (urine leakage without the bladder constriction) were excluded from calculation of micturition pressure. *P<0.05, **P<0.01 (significance to the values obtained before drug administration, paired t test, two-tailed test)
# [5] = system: rhythmic bladder contractions in urethane-anesthetized guinea pig; test: Rhythmic bladder contractions in urethane-anesthetized guinea pig (Test Example 1); conditions: mean ± standard error, maximum observation period 30 minutes
# Method: The urinary frequency and urinary incontinence suppressing activity of NO-711 hydrochloride was evaluated by the ability to increase an interval between rhythmic bladder contractions in urethane-anesthetized guinea pig as an index. In this model, an urethra was ligated, a constant volume of a physiological saline (3 to 4.5 ml) warmed at 39°C was injected into the bladder to distend, and the regular rhythmic bladder contractions at a constant interval were observed. After the stable rhythmic bladder contractions were confirmed, a compound dissolved in physiological saline was administered intravenously to investigate the activity. Immediately after administration of a drug, the time of complete suppression of the rhythmic bladder contractions (rhythmic bladder contraction shutdown time, maximum observation period was 30 minutes) was measured. Table 1 A drug was administered intravenously. *P<0.05, **P<0.01 (significance to the physiological saline-administered control group, nonparametric Dunnett multiple comparison test, two-tailed test)
# [6] = 0.3 mg/kg intravenously, 30 minutes starting 15 minutes after administration
# [7] = 1 mg/kg intravenously, 30 minutes starting 15 minutes after administration
# [8] = 3 mg/kg intravenously, 30 minutes starting 15 minutes after administration
# [9] = baseline of the 0.3 mg/kg i.v. group
# [10] = baseline of the 1 mg/kg i.v. group
# [11] = baseline of the 3 mg/kg i.v. group
# [12] = baseline of the 0.1 mg/kg i.v. group
structure (smiles),measurement,setting,value
"O=C(O)[C@@H]1CCCN(CCC=C(c2ccccc2)c2ccccc2)C1 [SKF89976A hydrochloride, (R)-1-(4,4-diphenyl-3-butenyl)-3-piperidinecarboxylic acid]","Change in maximum contractile intravesical pressure (Relative to before administration, %)",[1]; 3 mg/kg intravenously,-7.1±3.1%
same,Reflex shutdown time,[1]; 3 mg/kg intravenously,5.0 ± 1.0 min
same,"Change in maximum contractile intravesical pressure (Relative to before administration, %)",[1]; 10 mg/kg intravenously,-12.1±11.5%
same,Reflex shutdown time,[1]; 10 mg/kg intravenously,15.7±3.3* min.
same,"Change in maximum contractile intravesical pressure (Relative to before administration, %)",[1]; 30 mg/kg intravenously,-8.4±10.6%
same,Reflex shutdown time,[1]; 30 mg/kg intravenously,25.1±4.6** min.
"Cc1ccsc1C(=CCCN1CCC[C@@H](C(=O)O)C1)c1sccc1C [Tiagabin hydrochloride, (R)-1-[4,4-bis(3-methyl-2-thienyl)-3-butenyl]-3-piperidinecarboxylic acid]","Change in maximum contractile intravesical pressure (Relative to before administration, %)",[1]; 0.3 mg/kg intravenously,-12.6±5.8%
same,Reflex shutdown time,[1]; 0.3 mg/kg intravenously,4.7 ± 1.6 min
same,"Change in maximum contractile intravesical pressure (Relative to before administration, %)",[1]; 1 mg/kg intravenously,4.5±17.3%
same,Reflex shutdown time,[1]; 1 mg/kg intravenously,11.6 ± 3.8 min
same,"Change in maximum contractile intravesical pressure (Relative to before administration, %)",[1]; 3 mg/kg intravenously,-19.4±11.8%
same,Reflex shutdown time,[1]; 3 mg/kg intravenously,18.0±3.5* min.
same,"Change in maximum contractile intravesical pressure (Relative to before administration, %)",[1]; 10 mg/kg intravenously,-31.6±10.5%
same,Reflex shutdown time,[1]; 10 mg/kg intravenously,24.6±3.1** min.
same,Micturition interval (min.) After administration,[2]; [6],6.8 ± 0.9 min
same,Micturition pressure (mmHg) After administration,[2]; [6],15.1±2.6 mmHg
same,Micturition interval (min.) After administration,[2]; [7],6.5±1.0* min.
same,Micturition pressure (mmHg) After administration,[2]; [7],14.5±1.5 mmHg
same,Micturition interval (min.) After administration,[2]; [8],7.3±0.5** min.
same,Micturition pressure (mmHg) After administration,[2]; [8],16.5±1.6 mmHg
same,Micturition interval (min.) After administration,"[2]; 3 mg/kg orally, 30 minutes starting 60 minutes after administration",5.6 ± 0.7 min
same,Micturition interval (min.) After administration,"[2]; 10 mg/kg orally, 30 minutes starting 60 minutes after administration",6.1±0.8* min.
same,Micturition interval (min.) Before administration,[2]; [9],6.6 ± 1.5 min
same,Micturition pressure (mmHg) Before administration,[2]; [9],13.9±2.3 mmHg
same,Micturition interval (min.) Before administration,[2]; [10],5.2 ± 0.7 min
same,Micturition pressure (mmHg) Before administration,[2]; [10],14.4±1.4 mmHg
same,Micturition interval (min.) Before administration,[2]; [11],5.1 ± 0.5 min
same,Micturition pressure (mmHg) Before administration,[2]; [11],16.1±1.4 mmHg
same,Micturition interval (min.) Before administration,[2]; baseline of the 3 mg/kg oral group,4.9 ± 0.8 min
same,Micturition interval (min.) Before administration,[2]; baseline of the 10 mg/kg oral group,4.4 ± 0.5 min
same,micturition interval (result in words),"[2]; both intravenous and oral administrations, summary of Table 5 and Table 6",increased micturition interval
same,"Micturition interval (relative to before ligation, %) After administration",[3]; 0.1 mg/kg intravenously,78.8±10.0%
same,"Micturition pressure (relative to before ligation, %) After administration",[3]; 0.1 mg/kg intravenously,100.7±2.3%
same,"Micturition interval (relative to before ligation, %) After administration",[3]; 0.3 mg/kg intravenously,92.1±12.8* %
same,"Micturition pressure (relative to before ligation, %) After administration",[3]; 0.3 mg/kg intravenously,86.3±9.2%
same,"Micturition interval (relative to before ligation, %) After administration",[3]; 1 mg/kg intravenously,100.0±6.5** %
same,"Micturition pressure (relative to before ligation, %) After administration",[3]; 1 mg/kg intravenously,105.0±8.4%
same,"Micturition interval (relative to before ligation, %) After administration",[3]; 3 mg/kg intravenously,75.5±15.0* %
same,"Micturition pressure (relative to before ligation, %) After administration",[3]; 3 mg/kg intravenously,106.2 ± 5.3%
same,"Micturition interval (relative to before ligation, %) Before administration",[3]; [12],58.5±3.1%
same,"Micturition pressure (relative to before ligation, %) Before administration",[3]; [12],103.9±1.1%
same,"Micturition interval (relative to before ligation, %) Before administration",[3]; [9],62.5±4.9%
same,"Micturition pressure (relative to before ligation, %) Before administration",[3]; [9],91.3±10.6%
same,"Micturition interval (relative to before ligation, %) Before administration",[3]; [10],63.2±3.3%
same,"Micturition pressure (relative to before ligation, %) Before administration",[3]; [10],111.5±8.3%
same,"Micturition interval (relative to before ligation, %) Before administration",[3]; [11],46.5±11.6%
same,"Micturition pressure (relative to before ligation, %) Before administration",[3]; [11],105.2±10.8%
same,micturition interval (result in words),"[3]; intravenously, interval decreased by bilateral common carotid artery ligation, summary of Table 4",showed an increasing effect on micturition interval
same,"Change in bladder capacity (Relative to before administration, %)",[4]; 1 mg/kg intravenously,42.7±35.6%
same,"Change in micturition pressure (Relative to before administration, %)",[4]; 1 mg/kg intravenously,15.2±14.6%
same,"Change in bladder capacity (Relative to before administration, %)",[4]; 3 mg/kg intravenously,236.8±81.2* %
same,"Change in micturition pressure (Relative to before administration, %)",[4]; 3 mg/kg intravenously,29.5±15.6%
same,"Change in bladder capacity (Relative to before administration, %)",[4]; 10 mg/kg intravenously,276.4±29.4** %
same,"Change in micturition pressure (Relative to before administration, %)",[4]; 10 mg/kg intravenously,2.5±10.3%
O=C(O)C1=CCCN(CCON=C(c2ccccc2)c2ccccc2)C1 [NO-711 hydrochloride],"Change in maximum contractile intravesical pressure (Relative to before administration, %)",[1]; 0.3 mg/kg intravenously,-3.3±3.2%
same,Reflex shutdown time,[1]; 0.3 mg/kg intravenously,3.8 ± 1.1 min
same,"Change in maximum contractile intravesical pressure (Relative to before administration, %)",[1]; 1 mg/kg intravenously,-19.7±5.6* %
same,Reflex shutdown time,[1]; 1 mg/kg intravenously,11.4±2.9** min.
same,"Change in maximum contractile intravesical pressure (Relative to before administration, %)",[1]; 3 mg/kg intravenously,-8.4±5.8%
same,Reflex shutdown time,[1]; 3 mg/kg intravenously,12.1±2.5** min.
same,Rhythmic bladder contraction shutdown time,[5]; 1 mg/kg intravenously,5.9 ± 1.3 min
same,Rhythmic bladder contraction shutdown time,[5]; 3 mg/kg intravenously,18.4±5.0* minutes
same,Rhythmic bladder contraction shutdown time,[5]; 10 mg/kg intravenously,16.9±3.6** minutes
same,"Change in bladder capacity (Relative to before administration, %)",[4]; 0.3 mg/kg intravenously,-8.4±11.3%
same,"Change in micturition pressure (Relative to before administration, %)",[4]; 0.3 mg/kg intravenously,-18.1±10.5%
same,"Change in bladder capacity (Relative to before administration, %)",[4]; 1 mg/kg intravenously,180.9±76.8* %
same,"Change in micturition pressure (Relative to before administration, %)",[4]; 1 mg/kg intravenously,16.4±8.2%
same,"Change in bladder capacity (Relative to before administration, %)",[4]; 3 mg/kg intravenously,188.7±45.3** %
same,"Change in micturition pressure (Relative to before administration, %)",[4]; 3 mg/kg intravenously,14.6±18.2%
